{"source": "patent US20170095565A1", "about": "“CHEMICALLY MODIFIED SMALL MOLECULES” (Nektar Therapeutics, priority 2003, published 2017)", "key": {"[1]": {"target": "T1, recombinant human glucocorticoid receptor (Homo sapiens, UniProt P04150)", "T1 construct": "purchased PanVera", "T1 sequence (P04150 1-777)": "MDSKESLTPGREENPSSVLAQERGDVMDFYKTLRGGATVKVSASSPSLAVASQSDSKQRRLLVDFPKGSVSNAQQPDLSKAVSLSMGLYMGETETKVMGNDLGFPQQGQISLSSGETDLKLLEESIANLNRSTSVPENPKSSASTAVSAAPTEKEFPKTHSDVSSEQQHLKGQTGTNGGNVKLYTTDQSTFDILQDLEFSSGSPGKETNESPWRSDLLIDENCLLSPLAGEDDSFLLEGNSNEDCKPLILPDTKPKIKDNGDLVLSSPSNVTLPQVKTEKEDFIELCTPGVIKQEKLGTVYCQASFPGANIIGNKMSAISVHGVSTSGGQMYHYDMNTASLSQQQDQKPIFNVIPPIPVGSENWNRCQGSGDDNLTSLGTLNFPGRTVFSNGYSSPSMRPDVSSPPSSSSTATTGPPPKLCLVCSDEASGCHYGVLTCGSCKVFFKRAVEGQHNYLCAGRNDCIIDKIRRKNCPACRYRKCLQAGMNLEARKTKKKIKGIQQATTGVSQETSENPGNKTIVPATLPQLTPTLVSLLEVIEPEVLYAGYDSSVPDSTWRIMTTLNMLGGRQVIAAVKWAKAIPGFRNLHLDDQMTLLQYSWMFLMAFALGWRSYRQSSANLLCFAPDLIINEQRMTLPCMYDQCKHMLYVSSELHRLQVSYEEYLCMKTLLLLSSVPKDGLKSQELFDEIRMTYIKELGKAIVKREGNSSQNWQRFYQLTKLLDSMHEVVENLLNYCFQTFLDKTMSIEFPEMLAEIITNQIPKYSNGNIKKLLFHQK", "assay": "Cell-free glucocorticoid receptor binding assay (fluorescence polarization)", "settings": "for Ki: ± standard error, TA n = 2", "text": "The assay is based on competitive inhibition binding of a fluorescently labeled high affinity ligand, and generates Ki values that can be compared between the test compounds. […] Thus, as with EC5o values, a higher Ki value reflects a weaker binding affinity.\nA commercially available GR binding assay based on fluorescence polarization (FP) was utilized to compare the binding affinity of the PEGylated and native steroids (PanVera Glucocorticoid Receptor Competitor Assay). The assay is based on competitive inhibition and measures the ability of the test compound to compete with a fluorescently labeled ligand (Fluormone™ GS1) for binding to a purified preparation of the recombinant human glucocorticoid receptor.\nIn its free unbound form, the fluorescent ligand behaves as a small molecule with a high rotational velocity or “tumbling rate”, and correspondingly low ability to polarize fluorescence light (i.e. a low FP). When bound to receptor, the ligand essentially becomes part of a larger molecule, with a slower rotational velocity and a higher FP.\nStandard competition assay procedures were employed. Briefly, serial dilutions of the test compound were incubated in triplicate wells of a black 96-well microplate together with the fluorescent ligand, and reactions were initiated by addition of purified recombinant receptor. Assays were incubated in the dark for 2-4 h, and then polarization values were read using the fluorescence polarization function of the Tecan Genios Pro microplate reader."}, "hGR": {"target": "T2, hGR (Homo sapiens, UniProt P04150)", "T2 construct": "expressed in transfected cells; host or cells: COS-7 cells", "T2 sequence (P04150 1-777)": "T1 sequence (P04150 1-777)", "assay": "Glucocorticoid receptor luciferase reporter assay in COS-7 cells", "type": "cell-based", "settings": "for EC50: ± standard error, 20 hours incubation, TA n = 1", "text": "To quantitate the effect of PEGylation on the ability of the steroid to enter a cell and elicit a response, a glucocorticoid receptor reporter assay was employed. In this assay, treatment of cells with ligand leads to receptor-mediated expression of the firefly luciferase gene. The level of gene expression is quantitated by an enzymatic luciferase assay, and the amount of light produced is directly proportional to the expression level of the luciferase gene.\nFor these experiments, the Promega Dual Luciferase Reporter kit was employed. This involves a firefly luciferase reporter gene under the control of the Glucocorticoid Response Element (GRE-Luc), co-transfected into COS-7 cells with a gene encoding the hGR and a control vector containing a Renilla luciferase reporter gene under no promoter or enhancer elements (pRL-Null). The firefly luciferase gene is expressed only upon binding of a ligand-bound receptor to the GRE-Luc enhancer. […]\nCos-cells were plated in 96-well microplates and transfected with the relevant plasmids using standard procedures; all incubations and assays were performed in triplicate in these plates using medium containing DCCS, as described in section 8.3.1. […] Cells were then lysed, and the expression levels of firefly and Renilla luciferase were determined by sequential enzymatic assays provided by the Promega Dual Luciferase Reporter Assay kit. The resulting luminescence was detected using the Tecan Genios Pro Microplate reader, and data were analyzed using GraphPad Prism 4.0 software.\nReadings obtained in the absence of steroid represent “basal” background levels of luciferase expression. All readings in the presence of steroid are expressed as a ratio compared with this, and termed “fold increase over basal.” Values obtained for firefly luciferase were normalized to those obtained for Renilla luciferase in the corresponding well in order to compensate for differences in transfection efficiency or cell number."}, "[2]": {"target": "T3, human glucocorticoid receptor (hGR) (Homo sapiens, UniProt P04150)", "T3 construct": "expressed in transfected cells; host or cells: Chinese Hamster Ovary (CHO) cells", "T3 sequence (P04150 1-777)": "T1 sequence (P04150 1-777)", "assay": "Steroid-induced nuclear translocation assay of hGR in CHO cells", "type": "cell-based", "protocol": "To determine whether PEGylated steroids can enter cells, and to compare their potency with the parent steroid triamcinolone, cells expressing the human glucocorticoid receptor (hGR) were incubated with increasing concentrations of TA, PEG-3-TA and PEG-7-TA, and the subcellular location of the hGR determined using immunocytochemistry and fluorescence microscopy.\nChinese Hamster Ovary (CHO) cells were plated on glass coverslips in 24-well plates, and transfected with DNA encoding the hGR using 0.25 μg DNA per well. One day following transfection, cells were incubated with increasing concentrations, from 1 nM to 10 μM, of TA, PEG-3-TA or PEG-7-TA, overnight at 37° C.\nStock solutions of steroids were prepared at 2 mM (TA) or 1 mM (PEG-3-TA, PEG-7-TA) in ethanol. Each test compound was diluted to 10 μM into culture medium supplemented with dextran-coated charcoal treated serum (DCCS) (final 5% serum), and then further diluted to the final concentrations. […] Dilutions of steroid were calculated to ensure that cells were not exposed to ethanol concentrations greater than 1% (v/v). […]\nFollowing treatment with test compounds, cells were fixed in 3.7% (v/v) formaldehyde/PBS and permeabilized with 1% (v/v) Triton-X-100 in blocking buffer. Subcellular localization of the transfected hGR was determined by immunocytochemistry using an anti-GR antibody and a FITC-conjugated secondary antibody. […]"}, "[3]": {"settings": "in vivo; cited from earlier work"}, "Mu-opiate": {"target": "Mu-opiate (Homo sapiens, UniProt P35372)", "sequence (P35372 whole entry)": "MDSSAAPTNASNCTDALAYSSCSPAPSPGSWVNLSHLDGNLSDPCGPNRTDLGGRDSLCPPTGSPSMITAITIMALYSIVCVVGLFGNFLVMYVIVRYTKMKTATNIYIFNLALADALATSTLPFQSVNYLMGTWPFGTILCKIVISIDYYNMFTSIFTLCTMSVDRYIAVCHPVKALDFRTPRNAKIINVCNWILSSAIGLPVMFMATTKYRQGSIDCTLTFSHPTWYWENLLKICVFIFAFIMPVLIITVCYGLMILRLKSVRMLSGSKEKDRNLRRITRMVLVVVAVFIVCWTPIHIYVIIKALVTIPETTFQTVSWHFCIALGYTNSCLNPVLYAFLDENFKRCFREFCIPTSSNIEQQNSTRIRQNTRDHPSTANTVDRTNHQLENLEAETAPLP", "settings": "read-out: IC50, Mu-opiate binding activity"}, "[4]": {"assay": "Oral bioavailability: plasma concentration after oral gavage", "type": "in vivo, Sprague Dawley rats", "settings": "rats, PEGylated compounds normalized to 1 mg/kg dose", "protocol": "Female Sprague Dawley® rats (150-200 g) were obtained from Harlan Labs. […] The animals were fasted overnight (day −1), but water was provided ad libitum.\nOn the morning of dosing (day 0), each rat was weighed and the cannulas flushed with heparin (1000 U/mL). With the aid of a feeding tube, the animals were then dosed orally (gavage) with aqueous formulations containing either the PEGylated or the free drug. The dose was determined on a mg/kg body weight basis. […] At specific time intervals (1, 2 and 4 hours), blood samples (approximately 1.0 mL) were removed through the cannula, placed in 1.5 mL centrifuge tubes containing 14 μL of heparin, mixed and centrifuged to separate the plasma. The plasma samples were frozen (<−70° C.) until assayed. The plasma samples were purified by a precipitation technique and the analyte extracted and assayed using a high performance liquid chromatography (LC) method with a mass selective detector (MSD). […] When appropriate, an internal standard was used in the analysis."}, "μ-Opiate Receptors": {"target": "μ-Opiate Receptors (Homo sapiens, UniProt P35372)", "sequence (P35372 whole entry)": "as above", "assay": "biochemical", "type": "biochemical", "text": "In the table above, for each compound, the bioactivity is provided as a measure of the relative bioactivity of each of the various PEG conjugates in comparison to parent drug. The EC50 is the concentration of agonist that provokes a response halfway between the baseline and maximum response in a standard dose-response curve."}, "[5]": {"assay": "In-vitro metabolism, incubation with liver microsomes", "procedure": "The procedure calls for the preparation of a NADPH regenerating system (NRS) solution. […] After the solids were all dissolved, the solution was stored in an ice bath.\nMale Sprague Dawley rat microsomes (0.5 mL at 20 mg/mL concentration; M00001 from In-vitro Technologies, Baltimore, Md.) were removed from the freezer and thawed in an ice bath. Forty μL of the liver microsomes were diluted to 100 μL with 60 μL of deionized water in a test vial. To the test vial, tris buffer, pH 7.4 (640 μL) and a test article stock (10 μL) were added to have 750 μL volume.\nEach test vial and the NRS solution were separately placed in a 37° C. water bath for 5 minutes. The NRS solution (250 μL) was added into each test vial. The reaction timer was started at the addition of the NRS to the first test vial. Each sample (200 μL) was collected and then perchloric acid (20 μL) was added to terminate the reaction. The samples were collected at the following time points: 0-2, 20, 40 and 60 minutes. All of the terminated test vials were stored in an ice bath.\nAcetonitrile (100 μL) was added into each test vial, which was then centrifuged at 3000×g for 5 minutes. Supernatant (230 μL) was withdrawn and then 10 μL of the test solution was assayed by an LC/MS method. The concentration of test article in each sample was measured and recorded at each time point."}, "[6]": {"assay": "Solubility of tested compounds (Table 1)"}}, "note": "Read-outs that look alike come from different tables or passages of the source."}
{"smiles": "C[C@]12C=CC(=O)C=C1CC[C@H]1[C@@H]3C[C@@H](O)[C@](O)(C(=O)CO)[C@@]3(C)C[C@H](O)[C@@]12F", "note": "[TA, triamcinolone]", "values": [{"measurement": "Ki", "setting": "[1]", "result": "45.5 ± 21.1", "unit": "nM"}, {"measurement": "EC50", "setting": "hGR", "result": 0.545, "unit": "nM"}, {"measurement": "Concentration for complete translocation of hGR to the nucleus", "setting": "[2]", "result": "≥ 10", "unit": "nM"}, {"measurement": "hGR localization", "setting": "[2]; 1 nM (lowest concentration), overnight", "result": "predominantly in the nucleus"}]}
{"smiles": "CC1(C)O[C@@H]2C[C@H]3[C@@H]4CCC5=CC(=O)C=C[C@]5(C)[C@@]4(F)[C@@H](O)C[C@]3(C)[C@]2(C(=O)CO)O1", "note": "[TAA, triamcinolone acetonide]", "values": [{"measurement": "Fold difference vs TAA (Ki, Binding assay)", "setting": "[1]", "result": 1}, {"measurement": "Ki", "setting": "[1]", "result": "2.2 ± 0.5", "unit": "nM"}, {"measurement": "Fold difference vs TAA (EC50, Luciferase assay)", "setting": "hGR", "result": 1}, {"measurement": "EC50", "setting": "hGR", "result": "0.062 ± 0.011", "unit": "nM"}]}
{"smiles": "Nc1nc(F)nc2c1ncn2[C@@H]1O[C@H](CO)[C@@H](O)[C@@H]1O", "note": "[fludarabine]", "values": [{"measurement": "Oral bioavailability", "setting": "[3]", "result": "about 70%"}]}
{"smiles": "C=CCN1CC[C@]23c4c5ccc(O)c4O[C@H]2C(OCCOCCOCCOC)CC[C@@]3(O)[C@H]1C5", "note": "(stereo partly drawn) [β-PEG3-Nal, β-6-CH3—(OCH2CH2)3—O-naloxol]", "values": [{"measurement": "Percentage of Active Remaining After Incubation with Liver Microsomes", "setting": "0 min", "result": 100.0, "unit": "%"}, {"measurement": "Percentage of Active Remaining After Incubation with Liver Microsomes", "setting": "20 min", "result": 83.9, "unit": "%"}, {"measurement": "Percentage of Active Remaining After Incubation with Liver Microsomes", "setting": "40 min", "result": 75.2, "unit": "%"}, {"measurement": "Percentage of Active Remaining After Incubation with Liver Microsomes", "setting": "60 min", "result": 69.6, "unit": "%"}, {"measurement": "IC50", "setting": "Mu-opiate", "result": 31.7, "unit": "nM"}, {"measurement": "Mean Plasma Concentration ± SD, 1 hr", "setting": "[4]; 1 hr", "result": "53.79 ± 5.19", "unit": "ng/mL"}, {"measurement": "Mean Plasma Concentration ± SD, 2 hr", "setting": "[4]; 2 hr", "result": "22.47 ± 8.78", "unit": "ng/mL"}, {"measurement": "Bioactivity relative to the parent compound", "setting": "μ-Opiate Receptors; from EC50 values", "result": "about 35%"}, {"measurement": "EC50", "setting": "μ-Opiate Receptors; μ-opiate receptors, in-vitro", "result": 31.7, "unit": "nM"}, {"measurement": "Substrate quality for cytochrome P450 isozymes in isolated rat liver microsomes", "setting": "[5]", "result": "poor substrate"}, {"measurement": "Solubility", "setting": "[6]", "result": "soluble"}]}
